Data on 5 compounds can be found in article PMC10820527, “Synthesis, Characterization, and Investigation of Anti-Inflammatory and Cytotoxic Activities of Novel Thiourea Derivatives of Naproxen” (Pharmaceutics, 2023).

Read-outs that look alike come from different tables or passages of the source.

For one data set, the system named is HeLa. The experiment in a line: MTT cytotoxicity assay, HeLa. The class given is cell-based, human. The note with it: mean ± SD. How it is done: (§1) Three cancer cell lines (MDA-MB-231, HCT116 and HeLa; i.e., human breast cancer cells, human colorectal cancer cells, and human cervical cancer cells, respectively), and one non-malignant fibroblast MRC-5 cell line (control) were used in this study. The American Type Cell Collection (ATCC, Manassas, VA, USA) provided all examined cell lines. The cells were grown in a complete medium made up of high-glucose DMEM media supplemented with 10% fetal bovine serum and […] L-glutamine (both from Sigma-Aldrich, USA). The cells were cultured in 25 cc flasks (Thermo Fischer Scientific, Waltham, MA, USA) at 37 °C with 100% humidity in a 5% CO2 atmosphere.
(§2) The MTT test was used to assess the cytotoxicity of compounds 1–14 [44]. The cytotoxicity of naproxen was also investigated due to its clinical use and structural similarity. Throughout the exponential development period, cells were taken from culture flasks and counted, and 5 × 10^3 cells/well were planted into 96-well culture plates. Following that, the cell lines were treated with varying doses of the investigated chemicals (1–14), naproxen ([…]), and fresh complete media as a control. All evaluated cells were incubated for 24, 48, and 72 h at 37 °C in an environment containing 5% CO2 and 100% humidity. Following incubation, each well’s culture media was taken out, each well received an addition of MTT solution at a final concentration of 0.5 mg/mL, and the cells were left to incubate for an additional four hours. The MTT solution was then withdrawn carefully, and the formazan crystals were dissolved in DMSO. After shaking the plates for 10 min, absorbance at 595 nm was measured using a multiplate reader (Zenyth 3100, Anthos Labtec Instruments, Salzburg, Austria). All concentrations of the tested compounds were performed in three separate wells of the microtiter plates and in three separate experiments. The results were reported as a ratio to the control value, untreated cells. IC50 values were also determined using Microsoft Office Excel 2021. The percentage of viable cells was estimated by dividing the readout absorbance value in the wells containing treated cells by the average absorbance value measured in the wells containing untreated cells, and multiplying the result by 100 [44]. % of the viable cells = ((absorbance of treated cell-absorbance of blank)/(absorbance of untreated cell-absorbance of blank)) × 100(3)
(Formazan colour is commonly taken as a measure of viable cells.)

A further data set has as its system MDA-MB-231. The data set can be described thus: MTT cytotoxicity assay, MDA-MB-231. Format: cell-based, human. As to conditions: mean ± SD. As for the experimental part:
as §1, §2

Data set [1] concerns MRC-5 fibroblast cell line. The data set can be described thus: MTT cytotoxicity assay, MRC-5. The class given is cell-based. As to conditions: for IC50: mean ± SD. As for the experimental part: as §1, §2
The next data set deals with T1, 5-LOX (Homo sapiens, UniProt P09917).
T1 construct: purchased Abcam
T1 sequence (P09917 1-674): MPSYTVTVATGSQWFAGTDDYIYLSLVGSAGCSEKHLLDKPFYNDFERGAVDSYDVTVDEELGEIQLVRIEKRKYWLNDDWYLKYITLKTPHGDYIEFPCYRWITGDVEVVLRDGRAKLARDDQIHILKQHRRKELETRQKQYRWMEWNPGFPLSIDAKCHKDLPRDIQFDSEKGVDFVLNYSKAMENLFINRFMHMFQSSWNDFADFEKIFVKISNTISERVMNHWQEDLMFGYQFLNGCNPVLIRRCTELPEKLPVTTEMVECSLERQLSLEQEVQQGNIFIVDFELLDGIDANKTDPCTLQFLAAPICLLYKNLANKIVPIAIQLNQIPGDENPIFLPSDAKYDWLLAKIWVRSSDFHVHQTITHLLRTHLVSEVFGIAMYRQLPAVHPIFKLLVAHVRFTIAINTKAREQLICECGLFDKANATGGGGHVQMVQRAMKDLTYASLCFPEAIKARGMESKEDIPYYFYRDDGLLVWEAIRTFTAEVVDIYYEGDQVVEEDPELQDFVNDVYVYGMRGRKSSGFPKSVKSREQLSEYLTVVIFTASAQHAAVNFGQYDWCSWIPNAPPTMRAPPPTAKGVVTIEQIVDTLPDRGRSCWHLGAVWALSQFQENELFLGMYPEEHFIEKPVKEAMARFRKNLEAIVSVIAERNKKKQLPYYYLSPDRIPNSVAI
On the set-up: method as in PMID 37242450. The note with it: among compounds 1–5, previously published study ref 37; cited from earlier work.

Another data set deals with HCT 116. The data set can be described thus: MTT cytotoxicity assay, HCT 116. As to conditions: for IC50: mean ± SD. The class given is cell-based, human. As for the experimental part:
as §1, §2

For data set [2], the system named is carrageenan-induced rat paw edema. The experiment in a line: Carrageenan-induced rat paw edema model. Format: in vivo. The note with it: for Rat Paw Thickness: mean ± SD; for inhibition in vivo at 2.5 mg/kg / inhibition in vivo at 5 mg/kg / inhibition in vivo at 10 mg/kg: Rattus norvegicus. As for the experimental part:
The Carrageenan-induced rat paw edema model was used to assess the anti-inflammatory potential of novel compounds 8–14. Induction of inflammation was performed in all animals by intraplantar injection of […] 0.5% carrageenan saline into the left hind paw.
Animals (n = 200) were randomly divided into the following groups: control groups, that received either 1% DMSO or naproxen, and experimental groups, that received the novel compounds 8–14.
Control groups included DMSO and naproxen groups. Rats belonging to the DMSO group received 1% DMSO in the same volume as the compounds 8–14, 60 min before carrageenan injection. Moreover, naproxen groups included rats that were subjected to naproxen treatment in three doses: 2.5 mg/kg, 5 mg/kg, and 10 mg/kg. Naproxen was applied in the same manner as 1% DMSO.
Experimental groups included rats that were treated with compounds 8–14 and they were divided into three subgroups depending on the applied dose: 2.5 mg/kg, 5 mg/kg, and 10 mg/kg. The examined compounds were dissolved in 1% DMSO prior to treatment and applied to rats 60 min before inducing inflammation, i.e., before carrageenan injection. Doses of naproxen and investigated compounds were defined based on our previously published research.
In order to quantify the anti-inflammatory effects of the tested compounds, left paw thickness was measured at specific time points: prior to inflammation induction (moment 0) and 1, 2, 3, and 4 h (moments 1, 2, 3, and 4) following carrageenan injection. Tissue thickness was measured in the middle of the rat paw using a Digital Vernier caliper (Aerospace, China). The percentage of inhibition of paw edema after treatment with different agents was calculated according to the formula, Equation (2):% Inhibition = 100 × [1 − (Yt/Yc)](2) where Yt = average increase in paw thickness in the treated group of rats between two measurement moments, and Yc = average increase in paw thickness in the untreated group of rats between two measurement moments.
On the technique in general: Carrageenan injected into the paw causes an acute inflammation.

Data set [3] deals with MCF-7, MDA-MB-231, HeLa, and HCT-116. The note with it: cited from earlier work.
Setting [4] is: read-out: IC50 (cytotoxic activity of reference drugs), range over MCF-7, MDA-MB-231, HeLa, and HCT-116.

Usually IC50 stands for the concentration needed to halve the response being measured. `COc1cccc(NC(=S)NC(=O)[C@@H](C)c2ccc3cc(OC)ccc3c2)c1` [Compound 4]: the IC50 in the data set with HeLa (24 h) was more than 200 µM; with HeLa (48 h), 101 ± 12.2 µM; in the data set on HeLa (72 h), 90.8 ± 8.3 µM; in the data set on MDA-MB-231 (24 h), more than 200 µM; with MDA-MB-231 (48 h), more than 200 µM; in the data set with MDA-MB-231 (72 h), 110 ± 12.9 µM. Further, the IC50 in data set [1] (24 h) is more than 200 µM; in data set [1] (48 h) it was more than 200 µM; in data set [1] (72 h), more than 200 µM; in the data set with HCT 116 (48 h), 106 ± 12.9 µM; with HCT 116 (72 h), 71.6 ± 9.9 µM. For the same compound, on 5-LOX, the “5-LOX inhibition (in words)” value was “strongest 5-LOX inhibition”. For the same compound, in the data set with HCT 116, the “Cytotoxic effect against the HCT 116 cell line (in words)” value was “moderate cytotoxic effects”.

One may read the inhibition in vivo as the relative decrease from the control value, in per cent. A lower inhibition in vivo goes with a response near the control. `COc1ccc2cc([C@H](C)C(=O)O)ccc2c1` [Naproxen, naproxen]: the “Rat Paw Thickness” value in data set [2] (2.5 mg/kg, 1 h after carrageenan) was determined as 6.35 ± 0.15 mm; in data set [2] (2.5 mg/kg, 2 h after carrageenan) it was 6.02 ± 0.15 mm; in data set [2] (2.5 mg/kg, 3 h after carrageenan), 5.75 ± 0.20 mm; in data set [2] (2.5 mg/kg, 4 h after carrageenan), 5.18 ± 0.20 mm; in data set [2] (5.0 mg/kg, 1 h after carrageenan) it was 6.02 ± 0.20 mm; in data set [2] (5.0 mg/kg, 2 h after carrageenan), 5.52 ± 0.30 mm. Moreover, the “Rat Paw Thickness” value stood at 5.22 ± 0.30 mm in data set [2] (5.0 mg/kg, 3 h after carrageenan); 4.98 ± 0.24 mm in data set [2] (5.0 mg/kg, 4 h after carrageenan); 5.88 ± 0.23 mm in data set [2] (10.0 mg/kg, 1 h after carrageenan); 5.55 ± 0.45 mm in data set [2] (10.0 mg/kg, 2 h after carrageenan); 5.35 ± 0.32 mm in data set [2] (10.0 mg/kg, 3 h after carrageenan); 4.95 ± 0.35 mm in data set [2] (10.0 mg/kg, 4 h after carrageenan). Moreover, the inhibition in vivo at 2.5 mg/kg in data set [2] (2.5 mg/kg, 1 h) was 19.7%; in data set [2] (2.5 mg/kg, 2 h), 25.8%; in data set [2] (2.5 mg/kg, 3 h) it was 26.1%; in data set [2] (2.5 mg/kg, 4 h), 46.7%. Moreover, the inhibition in vivo at 5 mg/kg in data set [2] (5.0 mg/kg, 1 h) is 27.9%; in data set [2] (5.0 mg/kg, 2 h), 42.4%; in data set [2] (5.0 mg/kg, 3 h) it was 47.7%; in data set [2] (5.0 mg/kg, 4 h) it was 51.1%. Further, the inhibition in vivo at 10 mg/kg in data set [2] (10.0 mg/kg, 1 h) is 36.1%; in data set [2] (10.0 mg/kg, 2 h), 43.9%; in data set [2] (10.0 mg/kg, 3 h) it was 45.9%; in data set [2] (10.0 mg/kg, 4 h) it was 57.8%. Further, the IC50 was more than 200 µM with HeLa (Homo sapiens, HeLa, 24 h); more than 200 µM with HeLa (Homo sapiens, HeLa, 48 h); more than 200 µM with HeLa (Homo sapiens, HeLa, 72 h); more than 200 µM in the data set on MDA-MB-231 (Homo sapiens, MDA-MB-231, 24 h, 24 h); more than 200 µM in the data set on MDA-MB-231 (Homo sapiens, MDA-MB-231, 48 h, 48 h); more than 200 µM in the data set on MDA-MB-231 (Homo sapiens, MDA-MB-231, 72 h, 72 h). Also, the IC50 in data set [1] (Homo sapiens, MRC5, 24 h) was more than 200 µM; in data set [1] (Homo sapiens, MRC5, 48 h), more than 200 µM; in data set [1] (Homo sapiens, MRC5, 72 h) it was more than 200 µM; with HCT 116 (Homo sapiens, HCT-116, 24 h), more than 200 µM; with HCT 116 (Homo sapiens, HCT-116, 48 h), more than 200 µM; with HCT 116 (Homo sapiens, HCT-116, 72 h), more than 200 µM. Besides, the “Effect on the viability of the MRC-5 fibroblast cell line (in words)” value in data set [1] is reported as “insignificant effect”.

`CN(C)C/C=C/C(=O)Nc1cc2c(Nc3ccc(F)c(Cl)c3)ncnc2cc1O[C@H]1CCOC1` [afatinib]: the IC50 in data set [3] is 6.2 to 11.4 µM.

On to `Cc1ccc(-c2cc(C(F)(F)F)nn2-c2ccc(S(N)(=O)=O)cc2)cc1` [celecoxib], for which, in data set [3] (setting [4]), the IC50 is 22.8 to 42.7 µM.

For the compound `COc1cccc2c1C(=O)c1c(O)c3c(c(O)c1C2=O)C[C@@](O)(C(=O)CO)C[C@@H]3O[C@H]1C[C@H](N)[C@H](O)[C@H](C)O1` [doxorubicin], in data set [3] (setting [4]), the IC50 was 3.18 to 26.8 µM.
